Results reported in patent publication US9708282B1, “Anti-inflammatory and antiepileptic neuroprotective statin compounds” (NEURON BIOPHARMA, S.A., priority 2013, dated 2017).

Columns and labels:
[1] = tested on: neurons of the hippocampus; details: 3.125 mg/kg i.p. 24 h and 0.5 h before kainate 23 mg/kg, then 1 dose/day for three days
reactive astroglia = test: Protection against brain inflammation (astrogliosis, GFAP immunohistochemistry) induced by kainate; type: in vivo, mice; details: 3.125 mg/kg i.p. 24 h and 0.5 h before kainate 23 mg/kg, then 1 dose/day for three days; surviving animals
Protocol: Based on the coronal sections of the brain obtained during the experiment described above, astrogliosis was analyzed by means of bright field immunohistochemistry for the glial fibrillary acidic protein (GFAP) in surviving animals.
The degree to which astrogliosis has spread (or score) was determined on a scale of intensity from 0 to 3, where zero indicates the absence of reactive astroglia and three indicates maximum reactive astroglia, for each of the groups.

[2] = Concentrations in the brain of mice after i.p. administration (UPLC-MS); type: in vivo; details: male FVB mice, lactone forms; for AUC in the brain: 50 mg/kg i.p., 1, 2, 4 and 6 h; for Brain AUC and Cmax compared with simvastatin: 50 mg/kg i.p.
Protocol: (§1) Male FVB mice 4 months of age were treated i.p. with 50 mg/kg of the compounds (n=4-8 mice/group/time). The animals were sacrificed 1, 2, 4 and 6 h after treatment by means of injecting Eutanax, the blood and brain being extracted after perfusion with PBS. The plasma obtained from the blood and the entire brain were frozen at −20° C. until analysis. The compounds were extracted from the tissues with ethyl acetate and resuspended in ethanol for subsequent UPLC-MS quantification. Fluvastatin was used as an internal standard.

β-secretase (BACE) [3] = test: β-secretase (BACE) enzymatic activity in the brain of zebra fish after i.p. administration; type: in vivo; details: 100 mg/kg i.p., 24 h after administration, zebra fish 24 months of age
Protocol: The compounds object of study were prepared at different concentrations according to the weight of the animals in 0.5% methylcellulose in physiological saline, homogeneous suspensions thereof being obtained. Female zebra fish 24 months of age were treated i.p. with 100 mg/kg of the compounds or with equivalent volumes of the vehicle (n=8 fish/group). After 24 h, the animals were sacrificed and the brain was extracted and frozen at −20° C. After freezing the brains for 24 h, they were homogenized in 500 μL of 0.1 M sodium acetate at pH 4. The samples were incubated for 10 minutes under cold conditions to favor lysis and to obtain the extract after centrifuging at 10,000 g for 10 minutes. The enzymatic reaction was then carried out in the same way as in the case mice.

transgenic ApoB100 mice = test: Hypocholesterolemic effect in endogenous (familial) hypercholesterolemia model; type: in vivo; details: 50 mg/kg i.p., 12 h after treatment, male ApoB100 mice
Protocol: The mice were inoculated i.p. with 50 mg/kg of the compounds. Control mice were inoculated with equivalent volumes of the vehicle. Blood was drawn in fasting conditions before treating the animals and 12 h after treatments. Plasma, which was subsequently frozen, was obtained in both cases. The plasma total, LDL and HDL cholesterol concentration was quantified by enzymatic and spectrophotometric methods. After determining cholesterol levels and cholesterol fraction levels (baseline levels and 12 h after treatments), the change thereof with respect to the baseline level was calculated, and the results were depicted as a percentage with respect to the control group.

[4] = molecular target: T1, 3-hydroxy-3-methylglutaryl coenzyme A reductase (HMGCR) (Homo sapiens, UniProt P04035); test: Inhibition of HMGCR enzymatic activity in vitro (NADPH absorbance at 340 nm); type: biochemical; details: hydroxy acid forms
T1 construct: representing oxidation of NADPH by the catalytic subunit of HMGCR in the presence of the substrate
T1 sequence (P04035 426-888 limits assumed): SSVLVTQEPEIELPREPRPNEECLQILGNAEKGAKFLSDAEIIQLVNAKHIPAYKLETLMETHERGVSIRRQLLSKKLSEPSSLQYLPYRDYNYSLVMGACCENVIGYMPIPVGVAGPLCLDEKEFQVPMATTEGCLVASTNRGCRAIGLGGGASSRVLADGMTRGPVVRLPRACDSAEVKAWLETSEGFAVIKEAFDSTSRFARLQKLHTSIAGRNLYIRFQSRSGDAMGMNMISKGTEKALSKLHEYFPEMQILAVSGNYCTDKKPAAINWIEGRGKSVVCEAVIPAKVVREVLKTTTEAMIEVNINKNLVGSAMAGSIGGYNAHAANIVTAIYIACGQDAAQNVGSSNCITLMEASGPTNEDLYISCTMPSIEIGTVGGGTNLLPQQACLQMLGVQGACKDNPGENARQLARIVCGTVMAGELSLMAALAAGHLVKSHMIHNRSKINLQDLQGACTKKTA
Source text: The degree of inhibition of the HMGCR enzyme in vitro by NST0076 and NST0078 in the hydroxy acid form thereof was studied.
During the reaction, HMGCR uses NADPH (Nicotinamide Adenine Dinucleotide Phosphate) as reducing agent and 3-hydroxy-3-methylglutaryl coenzyme A (HMG-CoA) as substrate. Mevalonic acid is obtained as a reaction product, and it serves as substrate for the subsequent reaction to continue with cholesterol synthesis. The enzymatic reaction object of study is schematized as follows: HMG-CoA+2.NADPH+2.H^+→Mevalonic acid+2.NADP^++CoASH
This in vitro assay is based on the spectrophotometric measurement of the decrease in absorbance at 340 nm, representing oxidation of NADPH by the catalytic subunit of HMGCR in the presence of the substrate. […] Briefly, the assay is performed in a 96-well plate with reaction buffer 50 mM KH2PO4, 1 M KCl, 2 mg/ml bovine serum albumin (BSA) and 5 mM DTT, at pH=7.3, and the concentrations of the reagents in the reaction mixture are 0.2 mM HMG-CoA, 3 μU/point HMGCR and 0.2 mM NADPH. The plate is read in a spectrophotometer at 340 nm and 37° C.

[5] = Concentrations in plasma of mice after i.p. administration (UPLC-MS); type: in vivo; details: male FVB mice, lactone forms; for Plasma levels compared with simvastatin: 50 mg/kg i.p.; for AUC: mouse, plasma, ip, 50 mg/kg i.p., 1, 2, 4 and 6 h
Protocol: as §1

β-secretase (BACE) [6] = molecular target: T2, β-secretase (BACE) (Mus musculus, UniProt P56818); test: β-secretase (BACE) enzymatic activity in the brain of mice after i.p. administration; type: in vivo; details: 50 mg/kg i.p., 24 h after administration, FVB mice, brain homogenates
T2 construct: contacting a BACE-specific, fluorogenic substrate with a brain homogenate in which the enzyme is present; from tissue; host or cells: brain (without cerebellum) of FVB mice
T2 sequence (P56818 46-501): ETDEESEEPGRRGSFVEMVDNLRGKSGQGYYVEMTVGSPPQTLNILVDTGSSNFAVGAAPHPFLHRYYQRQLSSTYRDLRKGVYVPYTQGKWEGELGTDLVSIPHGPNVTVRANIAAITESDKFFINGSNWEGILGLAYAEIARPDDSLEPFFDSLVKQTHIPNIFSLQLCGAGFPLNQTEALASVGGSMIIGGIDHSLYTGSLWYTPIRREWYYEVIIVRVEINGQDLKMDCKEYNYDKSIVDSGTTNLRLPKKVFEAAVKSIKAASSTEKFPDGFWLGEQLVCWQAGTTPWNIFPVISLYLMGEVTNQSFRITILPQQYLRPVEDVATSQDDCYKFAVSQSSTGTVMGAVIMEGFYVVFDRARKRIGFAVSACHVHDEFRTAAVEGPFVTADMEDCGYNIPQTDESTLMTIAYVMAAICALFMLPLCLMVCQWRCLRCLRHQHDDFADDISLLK
Protocol: During the reaction, contacting a BACE-specific, fluorogenic substrate with a brain homogenate in which the enzyme is present allows quantifying the enzyme activity by means of measuring the fluorescence emitted.
Female FVB mice 4 months of age were treated i.p. with 50 mg/kg of the compounds or with equivalent volumes of the vehicle (n=6 mice/group). After 24 h, the animals were sacrificed and the brain was extracted and frozen at −20° C., first disposing of the cerebellum. After freezing the brains for 24 h, they were homogenized by making a 1/100 dilution in 0.1 M sodium acetate at pH 4. The samples were incubated for 10 minutes under cold conditions to favor lysis and to obtain the extract after centrifuging at 10,000 g for 10 minutes. The enzymatic reaction was then carried out. […] 50 μL of a 20 μM fluorogenic BACE substrate (Mca-[…]) were added to the samples and controls, the final concentration in the well being 10 μM and the total reaction volume being 100 μL. […] The results obtained in arbitrary units were normalized by the amount of protein that was determined by the bicinchoninic acid (BCA) method.

FVB/NRj mice = test: Protection against epilepsy caused by kainate (Racine scale); details: 3.125 mg/kg i.p. 24 h and 0.5 h before kainate 23 mg/kg

SMILES | Percentage of animals without damage (hippocampus) [1] | Degree of astrogliosis induced by kainate (score 0 to 3) (reactive astroglia) | AUC in the brain [2] | Brain AUC and Cmax compared with simvastatin [2] | BACE enzymatic activity in the brain of zebra fish (β-secretase (BACE) [3]) | Hypocholesterolemic effect (change in plasma total, LDL and HDL cholesterol) (transgenic ApoB100 mice) | HMGCR inhibition, times less than simvastatin [4] | Plasma levels compared with simvastatin [5] | AUC [5] | BACE enzymatic activity in the brain of mice (β-secretase (BACE) [6]) | Levels of epilepsy (AUC of Racine scale over 120 min, with respect to Vehicle+KA group) (FVB/NRj mice) | HMGCR inhibition (in words) [4] | IC50 ([4]; 20 min, 37° C., read-out: IC50 (concentration at which 50% of the HMGCR enzymatic activity is inhibited))
CCC(CC)C(=O)O[C@H]1C[C@@H](C)C=C2C=C[C@H](C)[C@H](CC[C@@H]3C[C@@H](O)C(CC)C(=O)O3)[C@H]21 (stereo partly drawn) [NST0078, (1S,3R,7S,8S,8aR)-8-(2-((2R,4R)-5-ethyl-4-hydroxy-6-oxo-tetrahydro-2H-pyran-2-yl)ethyl)-3,7-dimethyl-1,2,3,7,8,8a-hexahydronaphthalen-1-yl 2-ethylbutanoate] | 60% | protected against astrogliosis induced by kainate in all the studied regions | 17 µg·h/g | AUC and Cmax values surprisingly greater than those of simvastatin | capable of reducing BACE enzymatic activity with respect to the control in a statistically significant manner | did not show any hypocholesterolemic effect | about 1,900 times | plasma levels considerably greater than simvastatin | 17000 ng·h/mL | capable of reducing BACE enzymatic activity in a statistically significant manner | greater reduction of the levels of epilepsy compared to simvastatin |  | 
C[C@H]1C=C2C=C[C@H](C)[C@H](CC[C@@H]3C[C@@H](O)CC(=O)O3)[C@H]2[C@@H](O)C1 [monacolin J, reference compound] |  |  |  |  |  |  |  |  |  |  |  | HMGCR inhibitory capacity much less than that of simvastatin | 
CCC(C)(C)C(=O)O[C@H]1C[C@@H](C)C=C2C=C[C@H](C)[C@H](CC[C@@H]3C[C@@H](O)CC(=O)O3)[C@H]21 [simvastatin, reference compound] | 25% |  |  |  |  |  |  |  |  |  |  |  | 
CCC(CC)C(=O)O[C@H]1C[C@@H](C)C=C2C=C[C@H](C)[C@H](CC[C@@H]3C[C@@H](O)C(C)C(=O)O3)[C@H]21 (stereo partly drawn) [NST0076, (1S,3R,7S,8S,8aR)-8-(2-((2R,4R)-4-hydroxy-5-methyl-6-oxo-tetrahydro-2H-pyran-2-yl)ethyl)-3,7-dimethyl-1,2,3,7,8,8a-hexahydro-naphthalen-1-yl 2-ethylbutanoate] | 50% | protected against astrogliosis induced by kainate in all the studied regions | 37 µg·h/g | AUC and Cmax values surprisingly greater than those of simvastatin |  | did not show any hypocholesterolemic effect | about 28 times | plasma levels considerably greater than simvastatin | 12000 ng·h/mL | capable of reducing BACE enzymatic activity in a statistically significant manner | greater reduction of the levels of epilepsy compared to simvastatin | do not significantly inhibit the HMGCR enzyme | 603 ± 177 nM
